Reference: the NIST ThermoML archive (doi:10.1016/j.fluid.2012.11.006)
“And” between values parts separate entries of the source, which are not always exact repeats. Equal values may be shown once.

How the values were obtained:
[1] = molar enthalpy of transition or fusion; conditions: DSC
[2] = Molar enthalpy of transition or fusion; conditions: Crystal; DSC
[3] = molar heat capacity at constant pressure; conditions: 101.33 kPa, Crystal, Flow calorimetry
[4] = molar enthalpy of vaporization or sublimation; conditions: 298.15 K; Crystal; Torsion-effucion

O=C(O)c1cc(Br)cc(Br)c1 [3,5-dibromobenzoic acid]
Conditions	molar enthalpy of transition or fusion	vapor or sublimation pressure
355.2 K, Crystal, Torsion effusion method	–	1.9e-05 kPa
358 K, Crystal, Torsion effusion method	–	2.8e-05 kPa
359 K, Crystal, Torsion effusion method	–	2.8e-05 kPa
360.5 K, Crystal, Torsion effusion method	–	3.8e-05 kPa
362.5 K, Crystal, Torsion effusion method	–	4.7e-05 kPa
363.8 K, Crystal, Torsion effusion method	–	4.7e-05 kPa
365.2 K, Crystal, Torsion effusion method	–	5.7e-05 kPa
365.6 K, Crystal, Torsion effusion method	–	5.7e-05 kPa
366.4 K, Crystal, Torsion effusion method	–	6.6e-05 kPa
366.8 K, Crystal, Torsion effusion method	–	7.6e-05 kPa
369.2 K, Crystal, Torsion effusion method	–	9.5e-05 kPa
371 K, Crystal, Torsion effusion method	–	0.000114 kPa
371.2 K, Crystal, Torsion effusion method	–	0.000114 kPa
371.3 K, Crystal, Torsion effusion method	–	0.000114 kPa
372.5 K, Crystal, Torsion effusion method	–	0.000133 kPa
373 K, Crystal, Torsion effusion method	–	0.000133 kPa
373.7 K, Crystal, Torsion effusion method	–	0.000133 kPa
374 K, Crystal, Torsion effusion method	–	0.000152 kPa
375.6 K, Crystal, Torsion effusion method	–	0.000189 kPa
376 K, Crystal, Torsion effusion method	–	0.000189 kPa
377 K, Crystal, Torsion effusion method	–	0.000208 kPa
377.9 K, Crystal, Torsion effusion method	–	0.000227 kPa
378.2 K, Crystal, Torsion effusion method	–	0.000208 kPa
380.2 K, Crystal, Torsion effusion method	–	0.000284 kPa
380.4 K, Crystal, Torsion effusion method	–	0.000284 kPa
381.3 K, Crystal, Torsion effusion method	–	0.000303 kPa
381.5 K, Crystal, Torsion effusion method	–	0.000303 kPa
383.2 K, Crystal, Torsion effusion method	–	0.000398 kPa
383.7 K, Crystal, Torsion effusion method	–	0.000398 kPa
384.1 K, Crystal, Torsion effusion method	–	0.000379 kPa
384.3 K, Crystal, Torsion effusion method	–	0.000436 kPa
386.3 K, Crystal, Torsion effusion method	–	0.000474 kPa
386.6 K, Crystal, Torsion effusion method	–	0.000531 kPa
386.9 K, Crystal, Torsion effusion method	–	0.000531 kPa
387.7 K, Crystal, Torsion effusion method	–	0.000531 kPa
389.8 K, Crystal, Torsion effusion method	–	0.000758 kPa
390.1 K, Crystal, Torsion effusion method	–	0.00072 kPa
390.8 K, Crystal, Torsion effusion method	–	0.000796 kPa
391.1 K, Crystal, Torsion effusion method	–	0.000739 kPa
393.1 K, Crystal, Torsion effusion method	–	0.000947 kPa
393.7 K, Crystal, Torsion effusion method	–	0.000947 kPa
394 K, Crystal, Torsion effusion method	–	0.001004 kPa
395.6 K, Crystal, Torsion effusion method	–	0.001213 kPa
395.9 K, Crystal, Torsion effusion method	–	0.001175 kPa
500.1 K, Liquid, isothermal thermogravimetric	–	1.128 kPa
500.1 K, Liquid, non-isothermal thermogravimetric	–	1.173 kPa
500.7 K, Liquid, non-isothermal thermogravimetric	–	1.118 kPa
501.1 K, Liquid, isothermal thermogravimetric	–	1.191 kPa
501.1 K, Liquid, non-isothermal thermogravimetric	–	1.135 kPa
501.3 K, Liquid, non-isothermal thermogravimetric	–	1.141 kPa
501.6 K, Liquid, isothermal thermogravimetric	–	1.21 kPa
502.2 K, Liquid, isothermal thermogravimetric	–	1.21 kPa
504 K, Liquid, non-isothermal thermogravimetric	–	1.377 kPa
504.6 K, Liquid, isothermal thermogravimetric	–	1.376 kPa
504.9 K, Liquid, non-isothermal thermogravimetric	–	1.33 kPa
505.1 K, Liquid, isothermal thermogravimetric	–	1.405 kPa
505.2 K, Liquid, non-isothermal thermogravimetric	–	1.358 kPa
505.4 K, Liquid, isothermal thermogravimetric	–	1.401 kPa
505.6 K, Liquid, non-isothermal thermogravimetric	–	1.401 kPa
506.3 K, Liquid, isothermal thermogravimetric	–	1.426 kPa
508.2 K, Liquid, non-isothermal thermogravimetric	–	1.617 kPa
508.8 K, Liquid, isothermal thermogravimetric	–	1.646 kPa
508.9 K, Liquid, isothermal thermogravimetric	–	1.615 kPa
509 K, Liquid, non-isothermal thermogravimetric	–	1.592 kPa and 1.624 kPa
509.2 K, Liquid, isothermal thermogravimetric	–	1.652 kPa
509.4 K, Liquid, non-isothermal thermogravimetric	–	1.653 kPa
510.3 K, Liquid, isothermal thermogravimetric	–	1.637 kPa
512.3 K, Liquid, non-isothermal thermogravimetric	–	1.893 kPa
512.9 K, Liquid, isothermal thermogravimetric	–	1.908 kPa
513 K, Liquid, isothermal thermogravimetric	–	1.9 kPa
513.1 K, Liquid, isothermal thermogravimetric	–	1.909 kPa
513.1 K, Liquid, non-isothermal thermogravimetric	–	1.85 kPa
513.3 K, Liquid, non-isothermal thermogravimetric	–	1.802 kPa
513.5 K, Liquid, non-isothermal thermogravimetric	–	1.882 kPa
514.4 K, Liquid, isothermal thermogravimetric	–	1.98 kPa
516.3 K, Liquid, non-isothermal thermogravimetric	–	2.222 kPa
516.7 K, Liquid, isothermal thermogravimetric	–	2.189 kPa
517 K, Liquid, isothermal thermogravimetric	–	2.217 kPa
517.1 K, Liquid, isothermal thermogravimetric	–	2.176 kPa
517.1 K, Liquid, non-isothermal thermogravimetric	–	2.15 kPa and 2.187 kPa
517.5 K, Liquid, non-isothermal thermogravimetric	–	2.228 kPa
518.2 K, Liquid, isothermal thermogravimetric	–	2.223 kPa
520.1 K, Liquid, non-isothermal thermogravimetric	–	2.546 kPa
520.6 K, Liquid, isothermal thermogravimetric	–	2.505 kPa
520.9 K, Liquid, isothermal thermogravimetric	–	2.553 kPa
521 K, Liquid, non-isothermal thermogravimetric	–	2.478 kPa
521.2 K, Liquid, isothermal thermogravimetric	–	2.586 kPa
521.2 K, Liquid, non-isothermal thermogravimetric	–	2.518 kPa
521.4 K, Liquid, non-isothermal thermogravimetric	–	2.57 kPa
522.5 K, Liquid, isothermal thermogravimetric	–	2.612 kPa
524.2 K, Liquid, non-isothermal thermogravimetric	–	2.862 kPa
525 K, Liquid, isothermal thermogravimetric	–	2.943 kPa and 2.941 kPa
525.2 K, Liquid, non-isothermal thermogravimetric	–	2.789 kPa
525.4 K, Liquid, isothermal thermogravimetric	–	2.995 kPa
525.4 K, Liquid, non-isothermal thermogravimetric	–	2.858 kPa
525.5 K, Liquid, non-isothermal thermogravimetric	–	2.884 kPa
526.3 K, Liquid, isothermal thermogravimetric	–	3.009 kPa
528.1 K, Liquid, non-isothermal thermogravimetric	–	3.325 kPa
528.9 K, Liquid, non-isothermal thermogravimetric	–	3.233 kPa and 3.297 kPa
529.2 K, Liquid, non-isothermal thermogravimetric	–	3.322 kPa
[1], 298.15 K, Crystal	28.8 kcal/mol	–
[1], 491.2 K, Crystal	20.2 kcal/mol and 27.4 kcal/mol	–
[1], 491.2 K, Liquid	7.03 kcal/mol	–

Conditions	Normal melting temperature [°C]	molar heat capacity at constant pressure
Crystal, DTA	218.1	–
[3], 288.2 K	–	215.7 J/K/mol and 215.8 J/K/mol
[3], 290.2 K	–	217.3 J/K/mol and 217.5 J/K/mol and 217.4 J/K/mol
[3], 292.2 K	–	219.2 J/K/mol and 219.3 J/K/mol and 219.4 J/K/mol
[3], 294.2 K	–	220.3 J/K/mol and 220.4 J/K/mol
[3], 296.2 K	–	221.6 J/K/mol and 221.5 J/K/mol
[3], 298.2 K	–	223.2 J/K/mol and 223.1 J/K/mol and 223 J/K/mol
[3], 300.2 K	–	224.5 J/K/mol and 224.9 J/K/mol and 224.7 J/K/mol
[3], 302.2 K	–	225.8 J/K/mol and 225.7 J/K/mol
[3], 304.2 K	–	227.2 J/K/mol and 227.1 J/K/mol and 227 J/K/mol
[3], 306.2 K	–	228.4 J/K/mol and 228.3 J/K/mol
[3], 308.2 K	–	229.6 J/K/mol and 229.8 J/K/mol and 229.9 J/K/mol
[3], 310.2 K	–	231.5 J/K/mol and 231.6 J/K/mol
[3], 312.2 K	–	232.5 J/K/mol and 232.3 J/K/mol and 232.4 J/K/mol
[3], 314.2 K	–	234.1 J/K/mol and 233.9 J/K/mol and 234 J/K/mol
[3], 316.2 K	–	235.2 J/K/mol and 235.3 J/K/mol
[3], 318.2 K	–	236.9 J/K/mol and 236.7 J/K/mol and 237 J/K/mol
[3], 320.2 K	–	238.5 J/K/mol and 238.4 J/K/mol
[3], 322.2 K	–	239 J/K/mol and 239.2 J/K/mol
[3], 324.2 K	–	240.7 J/K/mol and 240.6 J/K/mol and 240.5 J/K/mol
[3], 326.2 K	–	242.5 J/K/mol and 242.4 J/K/mol

Conditions	Molar enthalpy of transition or fusion [kcal/mol]	molar enthalpy [kcal/mol]
[2]	20.2	–
[4]	–	28.8
